Test results: patent US8030283B2, “Stabilization of amrubicin hydrochloride” (Dainippon Sumitomo Pharma Co., Ltd., priority 2001, dated 2011)

Experiment: Storage stability of amrubicin hydrochloride compositions: rates of by-product generation of degradation products
Type: physicochemical
Description: Various compositions of amrubicin hydrochloride composed of about 91 to about 98% by weight of amrubicin hydrochloride and about 2 to about 9% by weight of water were prepared by exposing dried amrubicin hydrochloride to air whose relative humidity was adjusted (0 to 95%).
The thus-prepared amrubicin hydrochloride compositions having water contents of about 2 to about 9% by weight were stored at 30° C. and investigated rates of by-product generation of the degradation products, i.e., the desaccharification and deamination products.
The relative humidity was adjusted by reference to “Kobunshi Jikken-gaku Koza (Polymer Experiment Course) 5, Kobunshi no Bussei (Physical Properties of Polymers), 100-107 pages (Kyoritsu Shuppan Kabushiki Kaisha)”.

[1] = according to the decrease in water content
[2] = according to the increase in water content

**Q.** With `CC(=O)[C@]1(N)Cc2c(O)c3c(c(O)c2[C@@H](O[C@H]2C[C@H](O)[C@H](O)CO2)C1)C(=O)c1ccccc1C3=O.Cl` [amrubicin hydrochloride, (7S,9S)-9-Acetyl-9-amino-7-[(2-deoxy-β-D-erythro-pentapyranosyl)oxy]-7,8,9,10-tetrahydro-6,11-dihydroxy-5,12-nephthacenedione hydrochloride] as the compound, how does the “by-product generation rate of the deamination product” value [1] read?
**A.** Its value is “decreased”.

**Q.** What about the “by-product generation rate of the desaccharification product” value [1] of the same compound?
**A.** The value was “increased”.

**Q.** What about the “by-product generation rate of the deamination product” value [2] of the same compound?
**A.** Its value is “increased”.

**Q.** And the “by-product generation rate of the desaccharification product” value [2]?
**A.** The value was “decreased”.

**Q.** And the “by-product generation of both desaccharification and deamination products” value (stored at 30° C. under an atmosphere at 5 to 90% relative humidity (FIG. 1))?
**A.** Its value is “can be suppressed”.

**Q.** What about the “by-product generation of both desaccharification and deamination products” value (stored at 30° C., water content in composition controlled at 3 to 8% by weight (FIG. 2)) of the same compound?
**A.** Its value is “can be suppressed”.
